Several values for one entry are separate records, joined by “and”; a condition that tells them apart may be missing. Equal entries are not always repeated. Toxic doses and inconclusive results are not listed. How the source made its calls: active means survival T/C of 150% or more; inactive means T/C below 125% in these data.
Tested on: P388 leukemia ip, CD2F1 mice, survival T/C
Assay: NCI In Vivo Anticancer Drug Screen. Data for tumor model P388 Leukemia (intraperitoneal) in CD2F1 (CDF1) mice
Conditions: endpoint: median survival time, higher = longer survival
How it was run: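 Mice carrying the transplanted tumor received test compound or vehicle. Survival was recorded in each group, and the value is the treated-group measurement divided by that of the vehicle-treated control group.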

[1] = dose: 25.0 mg/kg/injection, schedule: Q01DX009 (ip), vehicle: Klucel (hydroxypropylcellulose) (HPC)
[2] = dose: 50.0 mg/kg/injection, schedule: Q01DX009 (ip), vehicle: Klucel (hydroxypropylcellulose) (HPC)
[3] = dose: 100.0 mg/kg/injection, schedule: Q01DX009 (ip), vehicle: Klucel (hydroxypropylcellulose) (HPC)
[4] = dose: 200.0 mg/kg/injection, schedule: Q01DX009 (ip), vehicle: Klucel (hydroxypropylcellulose) (HPC)
[5] = dose: 50.0 mg/kg/injection, schedule: Q01DX005 (ip), vehicle: Klucel (hydroxypropylcellulose) (HPC)
[6] = dose: 100.0 mg/kg/injection, schedule: Q01DX005 (ip), vehicle: Klucel (hydroxypropylcellulose) (HPC)
[7] = dose: 200.0 mg/kg/injection, schedule: Q01DX005 (ip), vehicle: Klucel (hydroxypropylcellulose) (HPC)
[8] = dose: 60.0 mg/kg/injection, schedule: Q01DX005 (ip), vehicle: Klucel (hydroxypropylcellulose) (HPC)
[9] = dose: 120.0 mg/kg/injection, schedule: Q01DX005 (ip), vehicle: Klucel (hydroxypropylcellulose) (HPC)
[10] = dose: 240.0 mg/kg/injection, schedule: Q01DX005 (ip), vehicle: Klucel (hydroxypropylcellulose) (HPC)
[11] = dose: 100.0 mg/kg/injection, schedule: Q01DX001 (ip), vehicle: Klucel (hydroxypropylcellulose) (HPC)
[12] = dose: 200.0 mg/kg/injection, schedule: Q01DX001 (ip), vehicle: Klucel (hydroxypropylcellulose) (HPC)
[13] = dose: 400.0 mg/kg/injection, schedule: Q01DX001 (ip), vehicle: Klucel (hydroxypropylcellulose) (HPC)
[14] = dose: 60.0 mg/kg/injection, schedule: Q01DX005 (ip), vehicle: saline
[15] = dose: 120.0 mg/kg/injection, schedule: Q01DX005 (ip), vehicle: saline
[16] = dose: 240.0 mg/kg/injection, schedule: Q01DX005 (ip), vehicle: saline
[17] = dose: 50.0 mg/kg/injection, schedule: Q01DX005 (ip), vehicle: saline with Tween-80
[18] = dose: 100.0 mg/kg/injection, schedule: Q01DX005 (ip), vehicle: saline with Tween-80
[19] = dose: 200.0 mg/kg/injection, schedule: Q01DX005 (ip), vehicle: saline with Tween-80
[20] = dose: 25.0 mg/kg/injection, schedule: Q01DX009 (ip), vehicle: saline with Tween-80
[21] = dose: 60.0 mg/kg/injection, schedule: Q01DX005 (ip), vehicle: saline with Tween-80

Measured: T/C

O=C(Nc1ccccc1)c1cnc[nH]1
inactive: [1] 99 % of control | [2] 102 % of control | [3] 102 % of control | [4] 96 % of control

Cc1nc2ccc(Br)cc2c(=O)n1-c1ccc(-c2n[nH]c(=S)n2-c2ccccc2)cc1
inactive: [5] 102 % of control | [6] 104 % of control | [7] 104 % of control

CCC1(O)C(=O)c2ccccc2N(c2ccccc2)C1=O (stereo not given)
inactive: [8] 91 % of control | [9] 90 % of control | [10] 90 % of control

ClC1(Cl)C(=C=C2C3CC4CC(C3)CC2C4)C12C1CC3CC(C1)CC2C3 (stereo not given)
inactive: [1] 100 % of control | dose: 50.0 mg/kg/injection, schedule: Q01DX008 (ip), vehicle: Klucel (hydroxypropylcellulose) (HPC) 101 % of control | dose: 100.0 mg/kg/injection, schedule: Q01DX008 (ip), vehicle: Klucel (hydroxypropylcellulose) (HPC) 101 % of control | [3] 94 % of control | dose: 200.0 mg/kg/injection, schedule: Q01DX008 (ip), vehicle: Klucel (hydroxypropylcellulose) (HPC) 87 % of control

CC(C)=CC(=O)NCCO
inactive: dose: 100.0 mg/kg/injection, schedule: Q04DX002 (ip), vehicle: saline 100 % of control | dose: 200.0 mg/kg/injection, schedule: Q04DX002 (ip), vehicle: saline 100 % of control | dose: 400.0 mg/kg/injection, schedule: Q04DX002 (ip), vehicle: saline 105 % of control

COc1cc(OC)cc(C2OC3=C(Nc4ccc([N+](=O)[O-])cc4N3)C2=O)c1 (stereo not given)
inactive: [8] 90 % of control | [9] 90 % of control | [10] 90 % of control

O=C(O)CCC(C(=O)O)N(Cc1ccccc1)Cc1ccccc1 (stereo not given)
inactive: [11] 105 % of control | [12] 100 % of control | [13] 105 % of control

O=P(O)(O)OCC1(O)OCC(O)C(O)C1O (stereo not given)
inactive: dose: 12.5 mg/kg/injection, schedule: Q01DX005 (ip), vehicle: saline 106 % of control | dose: 25.0 mg/kg/injection, schedule: Q01DX005 (ip), vehicle: saline 104 % of control | dose: 50.0 mg/kg/injection, schedule: Q01DX005 (ip), vehicle: saline 99 % of control and 103 % of control

C[Si](C)(CNCCN)O[Si](C)(C)CNCCN
inactive: [14] 99 % of control | [15] 90 % of control | [16] 101 % of control

O=S1(=O)CCCO1
inactive: dose: 100.0 mg/kg/injection, schedule: Q04DX003 (ip), vehicle: saline 100 % of control | dose: 200.0 mg/kg/injection, schedule: Q04DX003 (ip), vehicle: saline 118 % of control

CC1C(=O)OCC1(C)O (stereo not given)
inactive: [14] 107 % of control | [15] 103 % of control | [16] 109 % of control

Cc1c(-c2ccccc2)oc(=O)c(Cl)c1N(c1ccccc1)c1ccccc1
inactive: [17] 93 % of control | [18] 98 % of control | [19] 90 % of control

CN1C(=O)C2C3C=CC(C2C1=O)C1C2C(=O)N(C)C(=O)C2C31 (stereo not given)
inactive: [1] 100 % of control | [2] 108 % of control | [3] 111 % of control | [4] 104 % of control and 111 % of control

COC(=O)c1nn(-c2ccccc2)c2c1C(=O)c1ccccc1C2=O
inactive: [5] 97 % of control | [6] 92 % of control | [7] 98 % of control

COc1cc(/C=C/[N+](=O)[O-])c(OC)cc1Br
inactive: [20] 122 % of control

CCOC(=O)C1=C(C(=O)c2ccccc2)C(c2ccccc2[N+](=O)[O-])C(C(=O)c2ccccc2)=C(C(=O)OCC)N1
inactive: [21] 101 % of control | dose: 120.0 mg/kg/injection, schedule: Q01DX005 (ip), vehicle: saline with Tween-80 98 % of control

COc1cccc2c1C(=O)c1c(O)c3c(c(O)c1C2=O)CC(O)(C(C)=O)CC3OC1CC(NCC2(O)OCC(O)C2O)C(O)C(C)O1 (stereo not given)
inactive: dose: 3.13 mg/kg/injection, schedule: Q04DX003 (ip), vehicle: water 103 % of control | dose: 6.25 mg/kg/injection, schedule: Q04DX003 (ip), vehicle: water 100 % of control | dose: 12.5 mg/kg/injection, schedule: Q04DX003 (ip), vehicle: water 117 % of control | dose: 25.0 mg/kg/injection, schedule: Q04DX003 (ip), vehicle: water 112 % of control and 113 % of control | dose: 50.0 mg/kg/injection, schedule: Q04DX003 (ip), vehicle: water 122 % of control | dose: 200.0 mg/kg/injection, schedule: Q04DX003 (ip), vehicle: water 108 % of control
active: dose: 100.0 mg/kg/injection, schedule: Q04DX003 (ip), vehicle: water 182 % of control

Nc1ccc(/C=C/c2ccnc3ccccc23)c(N)c1
inactive: dose: 1.25 mg/kg/injection, schedule: Q01DX001 (ip), vehicle: Klucel (hydroxypropylcellulose) (HPC) 107 % of control | dose: 2.5 mg/kg/injection, schedule: Q01DX001 (ip), vehicle: Klucel (hydroxypropylcellulose) (HPC) 108 % of control | dose: 5.0 mg/kg/injection, schedule: Q01DX001 (ip), vehicle: Klucel (hydroxypropylcellulose) (HPC) 114 % of control | dose: 10.0 mg/kg/injection, schedule: Q01DX001 (ip), vehicle: Klucel (hydroxypropylcellulose) (HPC) 107 % of control

O=[N+]([O-])c1cc(Br)c2c(c1)CCN2
inactive: dose: 25.0 mg/kg/injection, schedule: Q01DX009 (ip), vehicle: distilled water + Tween-80 98 % of control | dose: 50.0 mg/kg/injection, schedule: Q01DX009 (ip), vehicle: distilled water + Tween-80 100 % of control | dose: 100.0 mg/kg/injection, schedule: Q01DX009 (ip), vehicle: distilled water + Tween-80 97 % of control | dose: 200.0 mg/kg/injection, schedule: Q01DX009 (ip), vehicle: distilled water + Tween-80 103 % of control | dose: 400.0 mg/kg/injection, schedule: Q01DX009 (ip), vehicle: distilled water + Tween-80 116 % of control

CCCCCCCCCC[N+]1(CC)CCCCCC1
inactive: dose: 3.12 mg/kg/injection, schedule: Q01DX009 (ip), vehicle: saline 90 % of control | dose: 6.25 mg/kg/injection, schedule: Q01DX009 (ip), vehicle: saline 98 % of control

COc1ncnc(Sc2ncccn2)c1[N+](=O)[O-]
inactive: dose: 12.5 mg/kg/injection, schedule: Q01DX009 (ip), vehicle: saline 103 % of control and 89 % of control | dose: 25.0 mg/kg/injection, schedule: Q01DX009 (ip), vehicle: saline 103 % of control and 105 % of control | dose: 50.0 mg/kg/injection, schedule: Q01DX009 (ip), vehicle: saline 102 % of control and 104 % of control and 90 % of control | dose: 100.0 mg/kg/injection, schedule: Q01DX009 (ip), vehicle: saline 100 % of control and 123 % of control and 89 % of control | dose: 200.0 mg/kg/injection, schedule: Q01DX009 (ip), vehicle: saline 109 % of control

CC1C(O)C(C)C(c2ccccc2)N(C)C1c1ccccc1 (stereo not given)
inactive: [17] 100 % of control | [18] 106 % of control | [19] 106 % of control

C1CN=C(N2CCCC2)C1
inactive: dose: 12.5 mg/kg/injection, schedule: Q01DX009 (ip), vehicle: saline with Tween-80 103 % of control | [20] 94 % of control | dose: 50.0 mg/kg/injection, schedule: Q01DX009 (ip), vehicle: saline with Tween-80 101 % of control and 90 % of control

NC(=O)c1c(-c2ccccc2)nc2n1CCS2
inactive: [11] 106 % of control | [12] 109 % of control | [13] 107 % of control

C=C(C(N)=O)C(N)C(=O)O (stereo not given)
inactive: [21] 120 % of control

CC(=O)CCNc1ccc(O)c2c1C(=O)c1ccccc1C2=O
inactive: dose: 25.0 mg/kg/injection, schedule: Q04DX002 (ip), vehicle: saline with Tween-80 100 % of control | dose: 50.0 mg/kg/injection, schedule: Q04DX002 (ip), vehicle: saline with Tween-80 101 % of control | dose: 100.0 mg/kg/injection, schedule: Q04DX002 (ip), vehicle: saline with Tween-80 94 % of control | dose: 200.0 mg/kg/injection, schedule: Q04DX002 (ip), vehicle: saline with Tween-80 100 % of control
